Test results published in PubChem BioAssay (NCI).
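Compound exposure: 48 hours, 5 concentrations, 96-well plates. GI50 marks 50% less growth. TGI marks complete inhibition of growth.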

Assays:
Experiment in all cases: growth of human tumour cells (NCI), 48 h
A549 NSCLC = tested on: A549 NSCLC
HL-60(TB) leukemia = tested on: HL-60(TB) leukemia
HOP-62 NSCLC = tested on: HOP-62 NSCLC
M14 melanoma = tested on: M14 melanoma
MALME-3M melanoma = tested on: MALME-3M melanoma
MOLT-4 leukemia = tested on: MOLT-4 leukemia
NCI-H226 lung = tested on: NCI-H226 lung
OVCAR-3 ovarian = tested on: OVCAR-3 ovarian
OVCAR-8 ovarian = tested on: OVCAR-8 ovarian
SK-MEL-5 melanoma = tested on: SK-MEL-5 melanoma
SN12C renal = tested on: SN12C renal
SNB-19 CNS = tested on: SNB-19 CNS
SW-620 colon = tested on: SW-620 colon
TK-10 renal = tested on: TK-10 renal
UACC-257 melanoma = tested on: UACC-257 melanoma
SNB-75 CNS = tested on: SNB-75 CNS

Row | SMILES | TGI (A549 NSCLC) | TGI (HL-60(TB) leukemia) | TGI (HOP-62 NSCLC) | TGI (M14 melanoma) | TGI (MALME-3M melanoma) | TGI (MOLT-4 leukemia) | TGI (NCI-H226 lung) | TGI (OVCAR-3 ovarian) | TGI (OVCAR-8 ovarian) | TGI (SK-MEL-5 melanoma) | TGI (SN12C renal) | TGI (SNB-19 CNS) | TGI (SW-620 colon) | TGI (TK-10 renal) | TGI (UACC-257 melanoma) | GI50 (HL-60(TB) leukemia) | GI50 (M14 melanoma) | GI50 (MOLT-4 leukemia) | GI50 (SW-620 colon) | TGI (SNB-75 CNS)
1 | OCCNCCN1CCN(CCCN2c3ccccc3Sc3ccc(C(F)(F)F)cc32)CC1 | 48.6 µM | > 100 µM | 38.1 µM | 30.2 µM | 45 µM | > 100 µM | 49.9 µM | 40.3 µM | 31.9 µM | > 100 µM | 33.9 µM | 49.2 µM | 35.3 µM | 37.2 µM | 34.6 µM | – | – | – | – | –
2 | Cc1ccc(C2OC(COCc3ccc(Cl)cc3)C(OCc3ccc(Cl)cc3)C2O)cc1 (configuration not stated) | 30.1 µM | – | – | – | – | > 100 µM | 38.5 µM | 27.5 µM | 36.9 µM | 25.9 µM | 13.1 µM | 56.7 µM | 49.5 µM | 29.7 µM | 43.1 µM | – | – | – | – | –
3 | CCCc1c(-c2ccccc2)[nH]c2ccccc2c1=O | – | > 100 µM | > 100 µM | > 100 µM | > 100 µM | > 100 µM | > 100 µM | > 100 µM | – | – | > 100 µM | > 100 µM | > 100 µM | > 100 µM | > 100 µM | – | – | – | – | –
4 | CO/N=C(/C)c1ccc(NC(=O)CSc2nnc(-c3ccncc3)n2-c2ccccc2)cc1 | – | > 100 µM | – | > 100 µM | – | > 100 µM | – | – | – | – | – | – | > 100 µM | – | – | > 100 µM | > 100 µM | > 100 µM | > 100 µM | –
5 | NCCSS(=O)(=O)CCN | > 100 µM | > 100 µM | > 100 µM | > 100 µM | > 100 µM | > 100 µM | > 100 µM | > 100 µM | > 100 µM | > 100 µM | > 100 µM | > 100 µM | > 100 µM | > 100 µM | – | – | – | – | – | > 100 µM
6 | CN(C)CCCN1c2ccccc2Sc2ccc3ccccc3c21 | 26.6 µM | 0.0372 µM | 24.8 µM | 3.3 µM | 21.6 µM | 10.1 µM | 19 µM | 21.7 µM | 27.1 µM | 8.21 µM | 22.9 µM | 28.8 µM | 22.6 µM | 17.7 µM | 4.1 µM | – | – | – | – | –
7 | C=CC1(NC(=O)c2ccccc2)CCC(C(C)(C)C)CC1 (configuration not stated) | > 100 µM | 33 µM | > 90.5 µM | – | > 94.9 µM | 30.3 µM | > 71.6 µM | 86.7 µM | > 100 µM | 43.9 µM | > 61.4 µM | > 100 µM | > 84.4 µM | – | > 77 µM | – | – | – | – | > 81.5 µM
8 | O=C1C(Cl)=C(Nc2ccc(S(=O)(=O)O)cc2)C(=O)c2ccccc21 | 58.7 µM | > 100 µM | > 100 µM | 47.1 µM | 36.9 µM | > 100 µM | 61.9 µM | 43.4 µM | 90.6 µM | 28 µM | – | > 100 µM | 51.1 µM | 42.9 µM | > 100 µM | – | – | – | – | > 100 µM
9 | O=C(O)c1cc2c(ncc3c(=O)n(-c4ccccc4)[nH]c32)s1 | > 100 µM | – | > 100 µM | > 100 µM | > 100 µM | > 100 µM | > 100 µM | > 100 µM | > 100 µM | – | > 100 µM | – | > 100 µM | > 100 µM | – | – | – | – | – | –
10 | Cn1c(=O)c2[nH]c(CCNC(=O)c3ccccc3)nc2n(C)c1=O | > 100 µM | – | > 100 µM | > 100 µM | > 100 µM | > 100 µM | > 100 µM | > 100 µM | > 100 µM | > 100 µM | > 100 µM | > 100 µM | > 100 µM | > 100 µM | > 100 µM | – | – | – | – | > 100 µM
11 | O=C1C=CC2(C=C1)O[C@H](Cc1ccccc1)[C@@H](Cc1ccccc1)O2 | 18.7 µM | 6.52 µM | 3.63 µM | 2.15 µM | 4.77 µM | […] | 0.902 µM | 1.17 µM | 0.503 µM | 1.76 µM | 3.01 µM | 6.47 µM | 0.254 µM | 1.66 µM | 4.51 µM | – | – | – | – | 7.23 µM
12 | CC(=O)Oc1cc2c(cc1OC(C)=O)OCC(c1ccccc1)C2 (configuration not stated) | 39.9 µM | 9.01 µM | 54.3 µM | – | 37.9 µM | 26.1 µM | 48.5 µM | 58.9 µM | 73.5 µM | 39 µM | 56.6 µM | 48.5 µM | 18.5 µM | – | 29.2 µM | – | – | – | – | 26.6 µM
13 | O=C1OC2(CC1C1(O)C3CC4CC(C3)CC1C4)C1CC3CC(C1)CC2C3 (configuration not stated) | > 100 µM | > 100 µM | – | > 100 µM | > 100 µM | > 100 µM | > 100 µM | > 100 µM | > 100 µM | > 100 µM | > 100 µM | – | > 100 µM | > 100 µM | > 100 µM | – | – | – | – | > 100 µM
14 | N#C[C@H](OC1OC(COC2OC(CO)C(O)C(O)C2O)C(O)C(O)C1O)c1ccccc1 (some centres not stated) | > 250 µM | > 141 µM | > 250 µM | – | > 250 µM | > 141 µM | > 250 µM | > 250 µM | > 250 µM | > 250 µM | > 250 µM | > 250 µM | > 250 µM | – | > 250 µM | > 141 µM | – | > 141 µM | – | > 250 µM
15 | COc1nc(=O)n(COC(CO)CN2C(=O)c3ccccc3C2=O)cc1Cc1cccc(OCc2ccccc2)c1 (configuration not stated) | 75.8 µM | 41.8 µM | – | 43.6 µM | – | 49.4 µM | 54.2 µM | 58.9 µM | > 100 µM | 30.5 µM | 58.5 µM | > 100 µM | > 100 µM | > 100 µM | – | – | – | – | – | 46.2 µM
16 | O=C(Nc1nc2ccc([N+](=O)[O-])cc2s1)C(=O)C(C(=O)c1ccccc1F)C1OC(=O)c2ccccc21 (configuration not stated) | > 100 µM | 51.2 µM | > 100 µM | > 100 µM | – | > 100 µM | – | – | > 100 µM | > 100 µM | > 100 µM | > 100 µM | > 100 µM | > 100 µM | > 100 µM | – | – | – | – | 74.5 µM
17 | O=C(CCl)NNC1=Nc2ccc(Cl)cc2SC1 | 26.2 µM | 3.3 µM | 31.8 µM | – | 3.31 µM | 2.86 µM | 6.16 µM | 3.28 µM | 2.02 µM | 6.54 µM | 4.07 µM | 26.4 µM | 4.22 µM | – | 7.53 µM | – | – | – | – | 5.14 µM
18 | Nc1ccn(C2C=C(CO)C(O)C2O)c(=O)c1 (configuration not stated) | > 625 µM | > 625 µM | > 625 µM | – | – | – | > 625 µM | > 625 µM | > 625 µM | > 625 µM | > 625 µM | > 625 µM | > 625 µM | – | – | – | – | – | – | > 625 µM
